{"source": "patent US6465636B1", "about": "“Pathogen-inducible promoter” (Zeneca Mogen B.V., priority 1998, dated 2002)", "test_system": "ms59 messenger", "assay": "Induction of ms59 messengers in sunflower leaves, transcript levels by competitive RT-PCR", "assay_type": "in vivo, Helianthus annuus cv Zebulon", "settings": "Helianthus annuus, read-out: fold induction of the ms59 messenger relative to the control", "procedure": "Leaves of 7 to 8 weeks old Sunflower plants (Helianthus annuus cv Zebulon) were induced by spraying 5 times with 5 mM salicylic acid (SA), spraying once with 1 mM salicylic acid, once with 0.1 mm jasmonic acid (JA), once with 1 mM ACC (1-aminocyclopropane-1-carboxylic acid, a precursor of the plant hormone ethylene) or wounding. Leaf samples were harvested from induced leaves after 24 hours (1 mM SA, 0.1 mM JA, 1 mM ACC and wounding) and after 5 days (5 mM SA). Control samples were taken at 24 hours after induction in non-induced plants.\nTotal RNA was extracted from 10 g leaf material using a hot phenol method and purified using the Qiagen RNA buffer set and tip-100 columns (Qiagen GmbH, Germany). Contaminating DNA was degraded using a Dnase I (Gibco BRL) treatment.\ncDNA was prepared using 1 μg total RNA, 1 μl oligo(dT)12-18 primers (500 μg/ml, Gibco BRL) and 200 units of Superscript II RT RNAse H reverse transcriptase (Gibco BRL) as described by the manufacturer.\nTranscript levels of ms59 were determined using the competitive RT-PCR technology.\nPCR MIMIC dilutions were made in a range of […] to 0.01 ag/μl in H2O containing 0.2 μg/μl glycogen as a carrier.\nThe cDNA samples were analysed in a competitive RT-PCR. Therefore 2 µl of the samples was combined in a 0.5 ml tube with 1 μl diluted PCR MIMIC (amounts; 0.1 pg, 10 fg, 1.0 fg, 0.1 fg, 10 ag and 1.0 ag). Amplification of cDNA and MIMIC was performed using 10 μM of the primers FR-MS59-47 and FR-MS59-77, 0.5 μl 20 mM dNTP's, 1×PCR buffer, MgCl and 2.5 units recombinant Taq DNA polymerase (Gibco BRL) and was allowed to proceed for 35 cycles, 1′ 95° C., 1′ 55° C., 2′ 72° C. PCR products were separated on a 2% agarose gel and visualized by staining with ethidium bromide and a UV illuminator.", "note": "Like-named read-outs stand apart in the source and are kept apart here.", "data": [{"smiles": "CC/C=C\\C[C@H]1C(=O)CC[C@@H]1CC(=O)O", "note": "[jasmonic acid]", "values": [{"measurement": "fold induction at 100 µM", "setting": "24 h", "value": 10}]}, {"smiles": "O=C(O)c1ccccc1O", "note": "[salicylic acid]", "values": [{"measurement": "fold induction at 5000 µM", "setting": "120 h, 5 mM, leaves sprayed 5 times, harvested after 5 days", "value": 1000}, {"measurement": "fold induction at 1000 µM", "setting": "1 mM, leaves sprayed once, harvested after 24 hours", "value": 1}]}, {"smiles": "NC1(C(=O)O)CC1", "note": "[ACC, 1-aminocyclopropane-1-carboxylic acid]", "values": [{"measurement": "fold induction at 1000 µM", "setting": "24 h", "value": 10}]}]}
